PubChem BioAssay AID256 (DTP/NCI, 2004)
“And” between values parts separate entries of the source, which are not always exact repeats. Equal values may be shown once. Toxic doses and inconclusive results are not listed. How the source made its calls: active means survival T/C of 150% or more; inactive means T/C below 125% in these data.

Tested on: CD2F1 mice, L1210 leukemia ip, survival T/C
Test: NCI In Vivo Anticancer Drug Screen. Data for tumor model L1210 Leukemia (intraperitoneal) in CD2F1 (CDF1) mice
Conditions: higher = longer survival
In short: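 Read-out first: treated-group measurement over vehicle-control measurement, expressed as a ratio. Animals bore a transplanted tumor line and were dosed with compound or vehicle.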

[1] = endpoint: mean survival time, dose: 100.0 mg/kg/injection, schedule: Q01DX009 (ip), vehicle: saline
[2] = endpoint: mean survival time, dose: 200.0 mg/kg/injection, schedule: Q01DX009 (ip), vehicle: saline
[3] = endpoint: mean survival time, dose: 100.0 mg/kg/injection, schedule: Q01DX009 (ip), vehicle: saline with Tween-80
[4] = endpoint: mean survival time, dose: 200.0 mg/kg/injection, schedule: Q01DX009 (ip), vehicle: saline with Tween-80
[5] = endpoint: mean survival time, dose: 400.0 mg/kg/injection, schedule: Q01DX009 (ip), vehicle: saline with Tween-80
[6] = endpoint: mean survival time, dose: 50.0 mg/kg/injection, schedule: Q01DX009 (ip), vehicle: saline with Tween-80
[7] = endpoint: mean survival time, dose: 100.0 mg/kg/injection, schedule: Q04DX003 (ip), vehicle: saline with Tween-80
[8] = endpoint: mean survival time, dose: 200.0 mg/kg/injection, schedule: Q04DX003 (ip), vehicle: saline with Tween-80
[9] = endpoint: mean survival time, dose: 400.0 mg/kg/injection, schedule: Q04DX003 (ip), vehicle: saline with Tween-80
[10] = endpoint: mean survival time, dose: 100.0 mg/kg/injection, schedule: Q04DX003 (ip), vehicle: saline
[11] = endpoint: mean survival time, dose: 200.0 mg/kg/injection, schedule: Q04DX003 (ip), vehicle: saline
[12] = endpoint: mean survival time, dose: 400.0 mg/kg/injection, schedule: Q04DX003 (ip), vehicle: saline
[13] = endpoint: mean survival time, dose: 25.0 mg/kg/injection, schedule: Q01DX009 (ip), vehicle: saline with Tween-80
[14] = endpoint: mean survival time, dose: 12.5 mg/kg/injection, schedule: Q01DX009 (ip), vehicle: saline with Tween-80

Measured: T/C

O/N=C(/CN1CCOCC1)c1ccc(Cl)cc1
inactive: endpoint: mean survival time, dose: 50.0 mg/kg/injection, schedule: Q01DX009 (ip), vehicle: saline 100 % of control | [1] 97 % of control | [2] 103 % of control

CSc1nc2cc(S(=O)(=O)O)ccc2s1
inactive: endpoint: mean survival time, dose: 100.0 mg/kg/injection, schedule: Q04DX003 (ip), vehicle: saline sonified 103 % of control | endpoint: mean survival time, dose: 200.0 mg/kg/injection, schedule: Q04DX003 (ip), vehicle: saline sonified 97 % of control | endpoint: mean survival time, dose: 400.0 mg/kg/injection, schedule: Q04DX003 (ip), vehicle: saline sonified 89 % of control

O=C(O)C1=NN(c2ccc(S(=O)(=O)O)cc2)C(=O)C1
inactive: [3] 96 % of control | [4] 92 % of control | [5] 92 % of control

O=c1c(O)c(O)c1=O.[NH2-].[NH2-].[NH2-].[NH2-].[NH2-].[Ru+5]
inactive: endpoint: median survival time, dose: 3.12 mg/kg/injection, schedule: Q01DX005 (ip), vehicle: saline 119 % of control | endpoint: median survival time, dose: 3.12 mg/kg/injection, schedule: Q01DX005 (ip), vehicle: suspension in saline 114 % of control | endpoint: median survival time, dose: 6.25 mg/kg/injection, schedule: Q01DX005 (ip), vehicle: saline 122 % of control | endpoint: median survival time, dose: 6.25 mg/kg/injection, schedule: Q01DX005 (ip), vehicle: suspension in saline 114 % of control | endpoint: median survival time, dose: 12.5 mg/kg/injection, schedule: Q01DX005 (ip), vehicle: suspension in saline 109 % of control | endpoint: median survival time, dose: 25.0 mg/kg/injection, schedule: Q01DX005 (ip), vehicle: saline 116 % of control

O=C(CCl)Nc1cccc2c1CCCC2
inactive: [6] 97 % of control | [3] 94 % of control | [7] 98 % of control | [4] 91 % of control | [8] 96 % of control

Nc1ncnc2c1ncn2CCCN1C(=O)c2ccccc2C1=O
inactive: [3] 93 % of control | [4] 95 % of control | [5] 101 % of control

S=c1[nH]c2ccccc2n1CCc1ccncc1
inactive: endpoint: mean survival time, dose: 100.0 mg/kg/injection, schedule: Q#A X016 (ip), vehicle: saline 108 % of control | endpoint: mean survival time, dose: 200.0 mg/kg/injection, schedule: Q#A X016 (ip), vehicle: saline 95 % of control | endpoint: mean survival time, dose: 400.0 mg/kg/injection, schedule: Q## X016 (ip), vehicle: saline 102 % of control | endpoint: mean survival time, dose: 400.0 mg/kg/injection, schedule: Q#A X016 (ip), vehicle: saline 98 % of control | endpoint: mean survival time, dose: 800.0 mg/kg/injection, schedule: Q## X016 (ip), vehicle: saline 100 % of control | endpoint: mean survival time, dose: 1600.0 mg/kg/injection, schedule: Q## X016 (ip), vehicle: saline 100 % of control

Cc1ccc(S(=O)(=O)Nc2cccc3c(NS(=O)(=O)c4ccc(C)cc4)cccc23)cc1
inactive: [7] 96 % of control | [8] 100 % of control | [9] 96 % of control

NC(CSS(=O)(=O)CC(N)C(=O)O)C(=O)O (stereo not drawn)
inactive: [10] 103 % of control | [11] 109 % of control | [12] 103 % of control

CCOC(=O)C(Br)(C(=O)OCC)C(c1ccccc1)c1ccccc1
inactive: [7] 98 % of control | [8] 89 % of control | [9] 93 % of control

CCN(CC)Cc1cc(O)ccc1NCCCNc1ccnc2cc(Cl)ccc12
inactive: [7] 96 % of control

NC(=O)c1cc(C(N)=O)n(C2OC(CO)C(O)C2O)n1 (stereo not drawn)
inactive: endpoint: mean survival time, dose: 12.5 mg/kg/injection, schedule: Q01DX005 (ip), vehicle: water 100 % of control | endpoint: mean survival time, dose: 25.0 mg/kg/injection, schedule: Q01DX005 (ip), vehicle: water 100 % of control | endpoint: mean survival time, dose: 50.0 mg/kg/injection, schedule: Q01DX005 (ip), vehicle: water 92 % of control | endpoint: mean survival time, dose: 100.0 mg/kg/injection, schedule: Q01DX005 (ip), vehicle: water 107 % of control | endpoint: mean survival time, dose: 200.0 mg/kg/injection, schedule: Q01DX005 (ip), vehicle: water 96 % of control

CC(N)C(=O)c1ccccc1 (stereo not drawn)
inactive: [10] 105 % of control | [11] 94 % of control

CCOC(OCC)c1cc[n+](CCc2ccc(OC)c(OC)c2)cc1
inactive: [10] 96 % of control

CC(C)OC(=O)N1C(=O)C2C3CCC(O3)C2C1=O (stereo not drawn)
inactive: [13] 105 % of control | endpoint: mean survival time, dose: 25.0 mg/kg/injection, schedule: Q04DX002 (ip), vehicle: saline with Tween-80 101 % of control | [6] 97 % of control | endpoint: mean survival time, dose: 50.0 mg/kg/injection, schedule: Q04DX002 (ip), vehicle: saline with Tween-80 101 % of control | [3] 97 % of control | endpoint: mean survival time, dose: 100.0 mg/kg/injection, schedule: Q04DX002 (ip), vehicle: saline with Tween-80 106 % of control | endpoint: mean survival time, dose: 400.0 mg/kg/injection, schedule: Q04DX002 (ip), vehicle: saline with Tween-80 97 % of control

O=C(O)C1Cc2nc[nH]c2CN1CO (stereo not drawn)
inactive: [14] 100 % of control | [13] 100 % of control and 102 % of control | [6] 100 % of control | [3] 104 % of control and 109 % of control | [4] 108 % of control | [5] 108 % of control and 109 % of control

CSc1nc(SC)c2cnn(C3OC(CO)C(O)C3O)c2n1 (stereo not drawn)
inactive: endpoint: median survival time, dose: 3.12 mg/kg/injection, schedule: Q01DX005 (ip), vehicle: saline with Tween-80 95 % of control | endpoint: median survival time, dose: 6.25 mg/kg/injection, schedule: Q01DX005 (ip), vehicle: saline with Tween-80 100 % of control | endpoint: median survival time, dose: 12.5 mg/kg/injection, schedule: Q01DX005 (ip), vehicle: saline with Tween-80 102 % of control and 103 % of control | endpoint: median survival time, dose: 25.0 mg/kg/injection, schedule: Q01DX005 (ip), vehicle: saline with Tween-80 102 % of control and 101 % of control and 97 % of control | endpoint: median survival time, dose: 50.0 mg/kg/injection, schedule: Q01DX005 (ip), vehicle: saline with Tween-80 102 % of control and 101 % of control and 97 % of control | endpoint: median survival time, dose: 100.0 mg/kg/injection, schedule: Q01DX005 (ip), vehicle: saline with Tween-80 102 % of control and 95 % of control | endpoint: median survival time, dose: 200.0 mg/kg/injection, schedule: Q01DX005 (ip), vehicle: saline with Tween-80 93 % of control and 95 % of control

CC1CN(CCC#N)CC(C)O1 (stereo not drawn)
inactive: [1] 105 % of control | [10] 95 % of control | [2] 104 % of control | [11] 104 % of control | endpoint: mean survival time, dose: 400.0 mg/kg/injection, schedule: Q01DX009 (ip), vehicle: saline 104 % of control | [12] 104 % of control

OC(CN1CCCCC1)c1cccs1 (stereo not drawn)
inactive: endpoint: mean survival time, dose: 6.25 mg/kg/injection, schedule: Q01DX009 (ip), vehicle: saline with Tween-80 102 % of control | [14] 98 % of control | [13] 102 % of control

CCC[n+]1c(C)oc2ccc(-c3ccccc3)cc21
inactive: [7] 100 % of control | [8] 101 % of control

Cc1c(N=[N+]=[N-])c(NS(=O)(=O)c2ccccc2)c(C)c(N=[N+]=[N-])c1NS(=O)(=O)c1ccccc1
inactive: [7] 96 % of control | [8] 93 % of control | [9] 93 % of control

CN1CC(=O)n2c(cc3ccccc32)C1=O
inactive: endpoint: mean survival time, dose: 50.0 mg/kg/injection, schedule: Q04DX002 (ip), vehicle: saline 101 % of control | endpoint: mean survival time, dose: 100.0 mg/kg/injection, schedule: Q04DX002 (ip), vehicle: saline 86 % of control | endpoint: mean survival time, dose: 200.0 mg/kg/injection, schedule: Q04DX002 (ip), vehicle: saline 93 % of control | endpoint: mean survival time, dose: 400.0 mg/kg/injection, schedule: Q04DX002 (ip), vehicle: saline 101 % of control

Clc1cc2ccccc2c(Cl)n1
inactive: endpoint: mean survival time, dose: 100.0 mg/kg/injection, schedule: Q01DX001 (ip), vehicle: saline with Tween-80 92 % of control | endpoint: mean survival time, dose: 200.0 mg/kg/injection, schedule: Q01DX001 (ip), vehicle: saline with Tween-80 89 % of control

Cc1cccc(=O)n1Cc1ccccc1
inactive: [7] 95 % of control | [8] 95 % of control | [9] 95 % of control

NOc1ccc([N+](=O)[O-])cc1[N+](=O)[O-]
inactive: [13] 89 % of control

NC(=O)c1cccnc1
inactive: endpoint: mean survival time, dose: 175.0 mg/kg/injection, schedule: Q04HX040 (ip), vehicle: water 109 % of control | endpoint: mean survival time, dose: 350.0 mg/kg/injection, schedule: Q04HX040 (ip), vehicle: water 103 % of control

CC(C)(C)OC(=O)N/N=C1\CC2CCC1C2 (stereo not drawn)
inactive: [13] 107 % of control

Cc1cc(Cc2cc(C)c(O)c(C)c2)cc(C)c1O
inactive: [6] 94 % of control | [3] 100 % of control | [4] 97 % of control

CC1(C(=O)O)CCCC2(C)C3=C(CCCC3)CCC12 (stereo not drawn)
inactive: [3] 96 % of control | [7] 98 % of control | [4] 93 % of control | [8] 93 % of control | [5] 102 % of control | [9] 90 % of control
